Laboratory results as given in US8519136B2, “Aminopyridine derivatives having aurora a selective inhibitory action” (MSD K.K., priority 2008, dated 2013).
Structures can show the parent of a compound that is named as a salt.

Columns and labels:
[1] = test system: Human cervical cancer cells (HeLa S3); test: Cell growth inhibitory effect, WST-8 method; type: cell-based; settings: 72 h, HeLa S3, three days incubation, read-out: Cell growth inhibitory effect (HeLaS3) (IC50)
Experimental: Fetal calf serum (FCS) was purchased from Moregate Biotech, and DMEM medium was purchased from Invitrogen Corp. WST-8 was purchased from Kishida Chemical Co., Ltd.
(§1) Human cervical cancer cells (HeLa S3) were obtained from the American Type Culture Collection (ATCC).
Cells were suspended in a DMEM medium containing 10% FCS, and the cell suspension was dispensed to a 96-well plastic plate at a rate of 750 cells/100 microliters per well. The plate was incubated overnight in 5% CO2-95% air at 37° C. A drug was subjected to graded dilution in dimethylsulfoxide and further diluted with a DMEM medium containing 10% FCS. Then, the dilution was dispensed to the plate on which cells had been disseminated, at a rate of 100 microliters per well. The plate was incubated for further three days in 5% CO2-95% air at 37° C. Cell growth after incubation was measured by the WST-8 method (H. Tominaga, et al., Anal. Commun., 36, 47-50 (1999)). Here, the WST-8 method refers to a method in which 20 microliters of a WST-8 reagent solution is added to each well, incubation is conducted at 37° C. for 60 minutes, the plate is stirred, and the amount of formazan produced is measured by a colorimetric method to determine the inhibitory rate of the drug. The concentration for 50% growth inhibition (IC50, μM) of the compound was determined.

[2] = biological target: T1, GST-tagged human Aurora B(AurB)/His-tagged human INCENP complex proteins (Homo sapiens, UniProt Q96GD4); test: Aurora B inhibitory activity (Method A, IMAP kit); type: biochemical; settings: 40 μM ATP, 25° C., 45 minutes
T1 construct: GST; purchased Carna Biosciences, Inc
T1 sequence (Q96GD4 whole entry): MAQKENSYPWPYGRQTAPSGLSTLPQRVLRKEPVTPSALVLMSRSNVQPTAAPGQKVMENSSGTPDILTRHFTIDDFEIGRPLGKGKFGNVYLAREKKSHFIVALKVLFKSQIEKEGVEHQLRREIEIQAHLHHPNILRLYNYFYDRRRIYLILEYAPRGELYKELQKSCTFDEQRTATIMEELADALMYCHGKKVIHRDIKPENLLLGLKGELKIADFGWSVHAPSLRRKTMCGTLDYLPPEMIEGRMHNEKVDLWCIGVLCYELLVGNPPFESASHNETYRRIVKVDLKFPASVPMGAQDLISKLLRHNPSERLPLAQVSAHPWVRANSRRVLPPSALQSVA
T1 sequence (Q9NQS7 803-916 partner limits assumed): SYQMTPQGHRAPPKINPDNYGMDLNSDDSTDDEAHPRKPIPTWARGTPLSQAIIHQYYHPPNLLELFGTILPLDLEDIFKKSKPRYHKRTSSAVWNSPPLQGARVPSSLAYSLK
Experimental: An assay development kit for IMAP (registered trademark) (Aurora B), purchased from Carna Biosciences, Inc., was used for phosphorylation reaction, and the phosphorylation of a substrate was detected using the IMAP technology. The assay development kit used is comprised of an assay buffer, GST-tagged human Aurora B(AurB)/His-tagged human INCENP complex proteins (amino acid sequence: 803-916, AAU04398.1), and an ATP/substrate solution. Using the same, the phosphorylation reaction was conducted in accordance with a partially revised protocol attached to the kit, and then the phosphorylation of the substrate was detected using the IMAP technology.
For the phosphorylation reaction, 384 well plate was used, and the reaction volume was 10 μl/well. The composition of the reaction buffer (assay buffer) is comprised of 20 mM of HEPES buffer (pH 7.4), 0.01% Tween-20, and 2 mM of dithiothreitol (DTT). Thereto, AurB/INCENP complex protein, 100 nM of the substrate, and 40 μM of ATP, and 1 mM of magnesium salt were added, and then the reaction was conducted at 25° C. for 45 minutes. Thereafter, in order to terminate and detect the reaction, 30 μl of the IMAP (registered trademark) binding reagent (IMAP Progressive Binding Reagent, R7284) that had been diluted (1:400) in the 1×IMAP binding buffer A (IMAP Progressive Binding Buffer A, 5× stock, R7282) was added to each well. The solution stood still for 60 minutes in the dark, and then fluorescence polarization was measured using a high-end microplate reader (excitation wavelength: 485 nm; emission wavelength: 520 nm).
(§2) The compound to be tested was added to the reaction system such that a dilution series of the compound in DMSO was prepared, and then 0.5 μL of this solution was added for the testing to each well. Each control well was provided by adding 0.5 μL of DMSO to the well in place of the DMSO solution containing the compound to be tested.

[3] = biological target: T2, His-tagged human Aurora A (Homo sapiens, UniProt O14965); test: Aurora A inhibitory activity (IMAP fluorescence polarization); type: biochemical; settings: 20 μM ATP, 30° C., 120 minutes
T2 construct: His (N); made in house; host or cells: Escherichia coli BL21-CodonPlus(DE3)-RIL
T2 sequence (O14965 1-403): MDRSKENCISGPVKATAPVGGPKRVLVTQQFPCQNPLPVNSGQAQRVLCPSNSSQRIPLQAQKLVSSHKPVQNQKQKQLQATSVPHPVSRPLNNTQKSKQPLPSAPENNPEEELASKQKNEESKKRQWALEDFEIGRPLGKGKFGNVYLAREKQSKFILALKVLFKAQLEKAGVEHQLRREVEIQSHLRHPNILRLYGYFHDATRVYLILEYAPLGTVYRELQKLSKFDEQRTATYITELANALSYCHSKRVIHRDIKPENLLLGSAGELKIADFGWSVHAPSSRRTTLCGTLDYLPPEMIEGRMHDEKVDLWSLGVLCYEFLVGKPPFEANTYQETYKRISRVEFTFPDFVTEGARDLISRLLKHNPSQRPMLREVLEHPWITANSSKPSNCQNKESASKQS
Text: cDNA of N-terminal His-tagged human Aurora A was integrated into an expression vector, which was then highly expressed in Escherichia coli BL21-CodonPlus(DE3)-RIL cells. The Escherichia coli was harvested and lysed, and then the His-tagged human Aurora A protein was applied onto a nickel chelate column and eluted from the column with imidazole. The active fractions were desalted with a desalting column to give a purified enzyme.
For measurement of the activity of Aurora A, the substrate used was a synthetic peptide (5-FAM (5-carboxyfluorescein)-γ-aminobutyric acid-Ala-Leu-Arg-Arg-Ala-Ser-Leu-Gly-NH2) (SEQ.ID.NO.: 1), which was purchased from Toray Research Center, Inc.
For the phosphorylation reaction, the method by Upstate, Inc. [Kinase Profiler™ Assay Protocols] was referred to, and phosphorylation of the substrate was detected using IMAP® technology (Molecular Devices, Co. Ltd.) (Gaudet E W. et. al, J. Biomol. Screen, 8, 164-175 (2003)). Concretely, the phosphorylation reaction and the detection were carried out as follows:
The phosphorylation reaction was conducted using 384 well plate, and the reaction volume was 10 μl/well. The reaction buffer is comprised of 50 mM Tris-chloride buffer (pH 7.4), 15 mM magnesium acetate, and 0.2 mM ethylenediamine-N,N,N′,N′-tetraacetic acid (EDTA). Thereto, the purified Aurora A protein, 100 nM of the peptide substrate, and 20 μM of adenosine 5′-triphosphate (ATP) were added, and then the reaction was carried out at 30° C. for 120 minutes.
Thereafter, in order to terminate and detect the reaction, 30 μl of the IMAP (registered trademark) binding reagent (IMAP Progressive Binding Reagent, R7284) that had been diluted (1:400) in the 1×IMAP binding buffer A (IMAP Progressive Binding Buffer A, 5× stock, R7282) was added to each well. The solution stood still for 60 minutes in the dark, and then fluorescence polarization was measured using a high-end microplate reader (excitation wavelength: 485 nm; emission wavelength: 520 nm).
as §2, with “in dimethylsulfoxide (DMSO)” for “in DMSO”

[4] = test system: Human cervical cancer cells (HeLa S3); test: Effect by combined use of drugs in cells (with docetaxel), WST-8 method; type: cell-based; settings: HeLa S3, three days; for inhibition at 0.03 µM: compound 30 nM alone
Experimental: Fetal calf serum (FCS) was purchased from Moregate Biotech, DMEM medium from Invitrogen Corp., docetaxel (tradename: Taxere) from Sigma-Aldrich, Inc., and WST-8 from Kishida Chemical Co., Ltd.
as §1
Cells were suspended in a DMEM medium containing 10% FCS, and the cell suspension was dispensed to two 96-well plastic plates at a rate of 750 cells/100 microliters per well. The plates were incubated overnight in 5% CO2-95% air at 37° C. A drug was subjected to graded dilution in dimethylsulfoxide and further diluted with DMSO or with a DMEM medium containing 10% FCS and also containing 0.6 nM docetaxel. Then, the dilutions were each dispensed to one of the plates on which cells had been disseminated, at a rate of 100 microliters per well. The final concentration of docetaxel at this stage was 0.3 nM. Also, the concentrations in the case of sole administration of the compound according to the invention were 0.003, 0.01, 0.03, 0.1, 0.3, 1, 3 and 10 μM. The plates were incubated for further three days in 5% CO2-95% air at 37° C. Cell growth after incubation was measured by the WST-8 method (H. Tominaga, et al., Anal. Commun., 36, 47-50 (1999)). Here, the WST-8 method refers to a method in which 20 microliters of a WST-8 reagent solution is added to each well, incubation is conducted at 37° C. for 60 minutes, the plate is stirred, and the amount of formazan produced is measured by a colorimetric method to determine the inhibitory rate of the drug. The growth inhibitory effects of docetaxel and of the compound according to the invention were determined, with the value obtained in sole treatment of DMSO being defined as 0%.

[5] = Homo sapiens, HeLa S3, 72 h, read-out: Cell growth inhibitory effect by sole administration of the compound of Example (%)
[6] = compound 30 nM + docetaxel 0.3 nM

Row | IC50 [1] [nM] | IC50 [2] [nM] | IC50 [3] [nM] | SMILES | inhibition at 0.03 µM [4, 5] [%] | Cell growth inhibitory effect by combined administration of docetaxel and the compound of Example (%) [4, 6] [%] | inhibition at 0.01 µM ([4]; Homo sapiens, HeLa S3, 72 h, compound 10 nM alone, read-out: Cell growth inhibitory effect by sole administration of the compound of Example (%)) [%] | Cell growth inhibitory effect by combined administration of docetaxel and the compound of Example (%) ([4]; compound 10 nM + docetaxel 0.3 nM)
1 | 280 | 166 | 0.27 | O=C(c1cccc(Cl)c1F)N1CCC(Cc2cccc(Nc3cc[nH]n3)n2)(c2n[nH]c(=O)o2)CC1 [Example 10, 5-(1-(3-chloro-2-fluorobenzoyl)-4-((6-(1H-pyrazol-3-ylamino)pyridin-2-yl)methyl)piperidin-4-yl)-1,3,4-oxadiazol-2(3H)-one trifluoroacetate] | 3.3 | 84.8 |  | 
2 | 220 | 35.8 | 0.25 | O=C(c1cccc(C(F)(F)F)c1F)N1CCC(Cc2cccc(Nc3cc[nH]n3)n2)(c2n[nH]c(=O)o2)CC1 [Example 9, 5-(1-(2-fluoro-3-(trifluoromethyl)benzoyl)-4-((6-(1H-pyrazol-3-ylamino)pyridin-2-yl)methyl)piperidin-4-yl)-1,3,4-oxadiazol-2(3H)-one] | 20.3 | 90.9 |  | 
3 | 100 | 381 | 0.3 | O=C(c1cccc(Cl)c1F)N1CCC(Cc2cc(-c3ccccc3)cc(Nc3cc[nH]n3)n2)(c2n[nH]c(=O)o2)CC1 [Example 17, 5-(1-(3-chloro-2-fluorobenzoyl)-4-((4-phenyl-6-(1H-pyrazol-3-ylamino)pyridin-2-yl)methyl)piperidin-4-yl)-1,3,4-oxadiazol-2(3H)-one] |  |  | 4.2 | 80.8
